In a melting point compilation (Tetko et al.; mined from patent text by program, amines drawn as free bases though some values may be those of a salt):

SMILES | melting point [°C]
CCOC(=O)CCc1cc(O)nn1C | 132 to 135
O=C(c1ccc(Cl)cc1)c1ccc2c(c1)C(c1cccc(Cl)c1)=NCC(=S)N2 | 125
CC(=O)OCc1cc([N+](=O)[O-])ccc1C | 52 to 53.5
Cc1cc(C=O)cc(Oc2[nH]c(=O)[nH]c(=O)c2C(C)C)c1 | 241 to 242
COc1ccc(-c2nn(-c3ccsc3)c3c(Cl)cccc23)cc1 | 111
OC[C@H]1CCCC[C@H]1Nc1nccc(-n2nnc3ccccc32)n1 | 206 to 208
CC(=O)Oc1nn(-c2ccc(C)cc2)c(=O)c2c1Nc1cc(Cl)ccc1C2 | 238 to 240
COC1C(O)C(CO)OC1n1cnc2c(=S)n(C)cnc21 (stereo not given) | 182 to 187
Cc1cccc(C(O)CNC2=NCCN2)c1 (stereo not given) | 121
N#Cc1cccc(C(Oc2ccccc2)Oc2ccccc2)n1 | 82 to 85
COc1ccc([C@H]2SC=C(c3ccccc3)N(CCN(C)C)C(=O)[C@H]2OC(C)=O)cc1 | 149 to 151
Cn1c(CCCOc2ccc(CC3SC(=O)N(C(c4ccccc4)(c4ccccc4)c4ccccc4)C3=O)cc2)nc2cccnc21 (stereo not given) | 76 to 81
CCCCCS(=O)(=O)NC(=O)CCc1ccc(OCCOC)cc1OCc1ccc(Cl)cc1Cl | 107 to 108
CC(C)(O)Cc1cccc2ccccc12 | 47 to 48
COc1ccc(-c2nn(CC(C)C)c(=O)c(CO)c2-c2ccc(OC)cc2)cc1 | 121 to 122
CC1OC2(CCN(c3nc(=O)c4cc(C(F)(F)F)cc([N+](=O)[O-])c4s3)CC2)OC1C (stereo not given) | 205 to 207
O=C(O)c1ccnc(Br)c1 | 214
Cn1ncc(/C=C/C(=O)Nc2ccc(CC(=O)NN)cc2)c1-c1ccc(F)cc1 | 273 to 274
CCc1ccc(-c2ccc(-c3ccc(C)s3)c(F)c2)cc1 | 102
O=C1Nc2cc(Cl)c(Cl)cc2N2CCNC[C@H]12 | 136 to 138

SMILES | melting point [°C]
Clc1ccc(-c2cc3nc(N4CCOCC4)c4ccccc4c3nn2)cc1 | 244 to 246
CC(C)(C)c1nc(S(C)(=O)=O)n(-c2c(Cl)cc(Cl)cc2Cl)n1 | 179 to 180
O=C(CCCl)Nc1ccccc1 | 114 to 116
COc1cc(OCCN2CCN(C)CC2)ccc1/C=C/c1cc(/C=C/c2ccc3cc[nH]c3c2)n[nH]1 | 134 to 142
O=C(O)c1cn(Cc2cnsn2)c2c(F)c(F)c(F)cc2c1=O | 220 to 222
COC(=O)c1cc2cc(C(=O)c3cccc(C(C)C(=O)OC)c3)sc2s1 (stereo not given) | 122
CN1CCN(Cc2cc(-c3ccc4c(c3)CCO4)nn(Cc3ccc(F)cc3)c2=O)CC1 | 179 to 180
COC(=O)c1nc(-c2ccc(Cl)c(OC)c2F)nc(N)c1OC | 155 to 158
CNC(=O)C=C(C)C=CC=C(C)C=Cc1c(C)cc(OC)c(C)c1C | 206
CN1c2ccccc2C(c2ccccc2F)=NCC1CNC(=O)C(Cc1c[nH]c2ccccc12)NC(=O)OC(C)(C)C (stereo not given) | 124
COc1ccc(CCN2C=CC=C3C2=Nc2cc(C(F)(F)F)ccc2S(=O)(=O)N3C)cc1 | 43 to 44
CCCCC(=O)c1cc2oc(C(=O)O)cc2c(C)c1C | 188 to 189
Cc1cc(C)cc(C(=O)c2c(C(C)C)c(=O)[nH]c(=O)n2COCc2ccccc2)c1 | 68 to 70
FC(F)(F)c1cc(Cl)c(-n2cccn2)c(Cl)c1 | 83 to 85
Oc1ccc2cc(COCC3CC3)ccc2c1 | 129 to 132
CCOC(=O)c1c(Cn2ccccc2=O)nc2cc(OC)c(OC)cc2c1-c1ccc(OC)c(OC)c1 | 154 to 156
CCOC(=O)c1cc(F)ccc1[N+](=O)[O-] | < 50
COc1ccc(-c2ccc(C3=NOC(CNC(C)=O)C3)cc2)ccc1=O (stereo not given) | 104 to 105
COc1ccc(CC(=O)Nc2cccc3nc(N[C@@H]4CCc5ccccc54)ccc23)cc1 | 175
OCCn1nc(-c2ccc(F)cc2)c(-c2ccncc2)c1C1CC1 | 155 to 157
